Patent US20120122854A1, “Carbocyclic Fused Cyclic Amines” (priority 2005, published 2012)

What follows are compounds tested against T1, human factor Xa (Homo sapiens, UniProt P00742) (assay: Factor Xa chromogenic peptide substrate (S-2222) assay). Conditions: human factor Xa 3 nM, chromogenic substrate S-2222, pH 7.8, room temperature; apparent Ki from IC50 by Cheng-Prusoff.
T1 construct: purchased Enzyme Research Laboratories
T1 sequence (P00742 235-488 limits assumed): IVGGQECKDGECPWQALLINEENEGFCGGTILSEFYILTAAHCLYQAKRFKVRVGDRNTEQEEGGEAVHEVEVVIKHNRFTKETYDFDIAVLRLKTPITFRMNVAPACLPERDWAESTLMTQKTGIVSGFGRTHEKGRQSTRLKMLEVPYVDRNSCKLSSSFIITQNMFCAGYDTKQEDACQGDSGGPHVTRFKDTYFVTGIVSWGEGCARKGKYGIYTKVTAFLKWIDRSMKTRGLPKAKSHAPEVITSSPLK
T1 sequence (P00742 41-179 partner limits assumed): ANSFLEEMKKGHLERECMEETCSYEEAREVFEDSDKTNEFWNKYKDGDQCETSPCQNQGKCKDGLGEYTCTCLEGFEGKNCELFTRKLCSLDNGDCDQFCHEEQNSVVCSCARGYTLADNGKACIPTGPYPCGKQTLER
Type: biochemical
Experimental: Factor Xa activity was measured spectrophotometrically in microtiter plates in a final volume of 150 μl using the following conditions: Inhibition of human factor Xa (Enzyme Research Laboratories) was tested at an enzyme concentration of 3 nM using the chromogenic substrate S-2222 (Chromogenix AB, Mölndal, Sweden) at […]. The reaction kinetics of the enzyme and the substrate were linear with both time and the enzyme concentration. The inhibitors were dissolved in DMSO and tested at various concentrations up to 100 μM. The inhibitors were diluted using HNPT buffer consisting of HEPES100 mM, NaCl 140 mM, PEG 6000 0.1% and Tween 80 0.02%, pH 7.8. The cleavage of S-2222 by human factor Xa was followed at 405 nm for 5 minutes at room temperature. The velocity of the reaction was determined by the autoreader from the slope of the linear regression fit to 7 time points (1 minute). The initial velocity for each inhibitor concentration was determined by the slope of at least 4 time points in the linear phase by a linear regression fit […]. Apparent dissociation constants Ki were calculated according to Cheng and Prusoff [Cheng, Y. C.; Prusoff, W. H. Relationship between the inhibition constant (Ki) and the concentration of the inhibitor that causes 50 percent inhibition (IC50) of an enzyme reaction. Biochem. Pharmacol. 1973, 22, 3099-3108.] based on the IC50 and the respective Km, determined previously (Ki=IC50/(1+S/Km)). The Km for the substrate used was determined under the conditions of the test with at least 5 substrate concentrations ranging from 0.5 to 15 times Km. [Lottenberg R, Hall J A, Blinder M, Binder E P, Jackson C M., The action of thrombin on peptide p-nitroanilide substrates. Substrate selectivity and examination of hydrolysis under different reaction conditions. Biochim Biophys Acta. 1983 Feb. 15; 742(3):539-57]. According to Eadie [Eadie G. S. The inhibition of cholinesterase by physostigmine and prostigmine. J. Biol. Chem. 1942, 146, 85-93.], the Km for S-2222 amounted to 613 μM.
`O=C(Nc1ccc(-n2ccccc2=O)cc1)C1c2ccccc2CN1C(=O)Nc1ccc(Cl)cc1` (stereo in doubt) [Example 4, (S)-1,3-Dihydro-isoindole-1,2-dicarboxylic acid 2-[(4-chloro-phenyl)-amide]1-{[4-(2-oxo-2H-pyridin-1-yl)-phenyl]-amide}] showed a Ki of 2 nM. In the case of `O=C(Nc1ccc(-n2ccccc2=O)cc1F)[C@H]1Cc2ccccc2CN1C(=O)Nc1ccc(Cl)cc1` [Example 25, (R)-3,4-Dihydro-1H-isoquinoline-2,3-dicarboxylic acid 2-[(4-chloro-phenyl)-amide]3-{[2-fluoro-4-(2-oxo-2H-pyridin-1-yl)-phenyl]-amide}], the Ki is reported as 2 nM. `O=C(NCC1CN(C(=O)Nc2ccc(-n3ccccc3=O)cc2F)c2cccc(Cl)c21)c1ccc(Cl)s1` (stereo not drawn) [Example 44, 4-Chloro-3-{[(5-chloro-thiophene-2-carbonyl)-amino]-methyl}-2,3-dihydro-indole-1-carboxylic acid [2-fluoro-4-(2-oxo-2H-pyridin-1-yl)-phenyl]-amide] showed a Ki of 2 nM.
